From patent US9493421B2, “Acridinedione derivatives for treating pigmentation disorders and ageing of the skin” (PIERRE FABRE DERMO-COSMETIQUE, priority 2011, dated 2016)
“And” between values parts separate entries of the source, which are not always exact repeats. Identical values can stand only once.

Tests used:
[1] = design: key: very good: 0.1 to 3.0; good: 3.01 to 50; average: 50.1 to 1000; poor: >1000; none: NEGATIVE; conditions: reference products of the interpretation scale; cited from earlier work
[2] = Log P (octanol/water partition coefficient); assay type: physicochemical
Source text: Log P, also called Log Kow, is a measurement of the differential solubility of chemical compounds in two solvents (octanol/water partition coefficient).
Log P is equal to the logarithm of the ratio of the concentrations of the examined substance in octanol and in water. Log P=Log(Coct/Cwater). With this value it is possible to assess the hydrophilic or hydrophobic (lipophilic) nature of a molecule. If Log P is positive and very high, this means that the molecule under consideration is much more soluble in octanol than in water, which reflects its lipophilic nature, and conversely. A value of Log P=0 means that the molecule is distributed equally between the two phases and Coct=Cwater (C. Hansch, J. F. Quinlan, G. L. Lawrence, Linear free energy relationship between partition coefficients and the aqueous solubility of organic liquids, J. Org. Chem., 33 (1968), 347-350; C. Hansch, A. Leo, Exploring QSAR—Fundamentals and Applications in Chemistry and Biology, American Chemical Society, Washington, 1995; J. Sangster, Octanol—Water Partition Coefficients: Fundamentals and Physical Chemistry, Wiley, Chichester, 1997; W. Jorgensen, E. Duffy, Advanced Drug Delivery Reviews, (54), 2002, 355-366).

[3] = system: B16-F10 cells; test: Assay of melanin in B16-F10 cells (colorimetric, α-MSH stimulated); assay type: cell-based, murine; conditions: Mus musculus, B16-F10, 72 h, 0.1 μM α-MSH, negative = inhibition, positive = stimulation, read-out: Melanin synthesis on B16
Protocol: It is a test to measure the synthesis of melanin by colorimetric assay on a murine melanoma cell line: line B16-F10. With this test it is possible to evaluate the depigmenting or propigmenting property of active ingredients.
The B16-F10 cells were seeded in 96-well plates in DMEM medium supplemented with FCS (foetal calf serum), and incubated 24 h at 37° C., 5% CO2. The cells were stimulated with 0.1 μM α-MSH (to stimulate melanin synthesis, the observed stimulation being about 150%) and treated 72 h with the active ingredients to be assayed. Each concentration of active ingredient was assayed at least in triplicate. Total melanin and intracellular melanin dissolved in lysis buffer were assayed by absorbance read-off at 405 nm. The total proteins were assayed in the lysate and the results expressed in mg melanin/mg proteins. Percentage activity was calculated as follows: […]
A negative value indicates inhibition of the melanin synthesis and translates depigmenting activity of the compound, whereas a positive value indicates induced melanin synthesis and translates a propigmenting property of the molecule.
• B16-F10 cell lines between P10 and P20 (murine melanocytes) (ATCC, CRL-6475); • reagents: DMEM without Phenol Red (GIBCOBRL, 118800-028), 200 mM glutamax-I supplement (GIBCOBRL, 35050-038), glucose (SIGMA, G7021), PBS (GIBCOBRL, 14190-094), foetal calf serum (Invitrogen, 10270-098), trypsin-EDTA (GIBCOBRL, 25300-054), NaOH (Sigma, S8045-500G), DMSO (Sigma, 471267-11), Nle, Phe-Melanocyte Stimulating Hormone (Sigma, M-8764), melanin (Sigma, M-0418), BCA-COPPER (SIGMA, B9643 and C2284), BSA (SIGMA, P0914) B) Test to Study Anti-Oxidizing Capability Using Chemiluminescence (Photochem Analytic Jena) Principle

[4] = Test to study anti-oxidizing capability using chemiluminescence (Photochem Analytic Jena); assay type: biochemical; conditions: quantity of sample needed for activity equivalent to 1 μg Trolox, superoxide anion trapping
Protocol: This test is used to determine the anti-oxidizing capability of the molecules. It is a method which generates free radicals via photochemical signal. The intensity of oxidation is 1000 times higher than obtained under normal conditions.
Detection is performed using chemiluminescence. This allows evaluation of water-soluble and liposoluble antioxidant molecules or extracts
The results are expressed in equivalent quantity of vitamin C or Trolox (6-hydroxy-2,5,7,8-tetramethylchroman-2-carboxylic acid) respectively. Sensitivity is in the order of one nanomole.
The anti-oxidizing activity studied in this test represents the capability of specifically trapping superoxide anions by chemiluminescence.
The quantified results are expressed in Trolox equivalent (standard) or in “μg of product per 1 μg of Trolox”. This means that a quantity x of sample is needed to obtain activity equivalent to the activity detected with 1 μg of standard. It is the antioxidizing power in relation to a reference; this avoids having to take into account the concentrations tested.
The superoxide radical: O2^∘^− is generated by photochemical reaction: L+hv(UV)+O2→L*O2→L^∘^++O2^∘^− • L*: luminol in the excited state L^∘+: luminol radical Signal Detection
Part of the superoxide anions are inhibited by the antioxidants. The remaining free radicals are quantified by chemiluminescence. L^∘^++O2^∘^−→N2+AP*^2−→AP^2−+hv (luminescence)
AP*^2−: aminophthalate in the excited state

Row | Compound | Activity (scale for interpretation of results) [1] | logP [2] | μg sample per 1 μg of Trolox [4] | also measured
1 | O=C(O)CCCC[C@@H]1CCSS1 (racemic) [Lipoic acid] | none | – | – | –
2 | Cc1cc(C(C)(C)C)c(O)c(C(C)(C)C)c1 [BHT] | good (3.01 to 50) | – | – | –
3 | N[C@@H](CS)C(=O)O [Cystein] | average (50.1 to 1000) | – | – | –
4 | CCCCCCCCCCCCN1C2=C(C(=O)CC(C)(C)C2)C(c2ccc(O)c(OC)c2)C2=C1CC(C)(C)CC2=O [Example 1, 10-dodecyl-9-(4-hydroxy-3-methoxyphenyl)-3,3,6,6-tetramethyl-3,4,6,7,9,10-hexahydroacridine-1,8(2H,5H)-dione] | – | 6.3 | 2.45 μg sample per 1 μg of Trolox | activation at 2 µM ([3]; at 2 μM): -40%
5 | CCCCCCCCCCN1C2=C(C(=O)CC(C)(C)C2)C(c2ccc(O)c(O)c2)C2=C1CC(C)(C)CC2=O [Example 3, 10-decyl-9-(3,4-dihydroxyphenyl)-3,3,6,6-tetramethyl-3,4,6,7,9,10-hexahydroacridine-1,8(2H,5H)-dione] | – | 5.21 | 0.015 μg sample per 1 μg of Trolox | activation at 20 µM [3]: -46%
6 | CCCCCCCCCCN1C2=C(C(=O)CC(C)(C)C2)C(c2cc(OC)c(O)c(OC)c2)C2=C1CC(C)(C)CC2=O [Example 7, 10-decyl-9-(4-hydroxy-3,5-dimethoxyphenyl)-3,3,6,6-tetramethyl-3,4,6,7,9,10-hexahydroacridine-1,8(2H,5H)-dione] | – | 5.34 | 0.81 μg sample per 1 μg of Trolox | activation at 10 µM [3]: -56%
7 | CCCCCCCCCCCCN1C2=C(C(=O)CC(C)(C)C2)C(c2cc(C(C)(C)C)c(O)c(C(C)(C)C)c2)C2=C1CC(C)(C)CC2=O [Example 8, 10-dodecyl-9-(3,5-di-tert-butyl-4-hydroxyphenyl)-3,3,6,6-tetramethyl-3,4,6,7,9,10-hexahydroacridine-1,8(2H,5H)-dione] | – | > 5 | 62 μg sample per 1 μg of Trolox and 61.9 μg sample per 1 μg of Trolox | activation at 20 µM [3]: -46%
8 | CCCCCCCCCCCCN1C2=C(C(=O)CC(C(C)C)C2)C(c2ccc(O)c(OC)c2)C2=C1CC(C(C)C)CC2=O (centres unmarked) [Example 9, 10-dodecyl-9-(4-hydroxy-3-methoxyphenyl)-3,6-diisopropyl-3,4,6,7,9,10-hexahydroacridine-1,8(2H,5H)-dione] | – | > 5 | 1.57 μg sample per 1 μg of Trolox | activation at 10 µM [3]: -49%
9 | O=C1O[C@H]([C@@H](O)CO)C(O)=C1O [Vitamin C] | very good (0.1 to 3.0) | – | – | –
10 | Albumin | poor (>1000) | – | – | –
